Source: ChEMBL document CHEMBL4130390, “Crystal structure of Porphyromonas gingivalis dipeptidyl peptidase 4 and structure-activity relationships based on inhibitor profiling” (Eur J Med Chem, 2017)
Active and inactive are the calls of the source. The rule behind the calls is not given here.

What was measured:
[1] = target: Dipeptidyl peptidase IV (Porphyromonas gingivalis) (UniProt O31048); test: Inhibition of Porphyromonas gingivalis N-terminal His-tagged DPP4 expressed in Escherichia coli at 10 uM using Gly-Pro-p-nitroanilide as substrate relative to control
Dipeptidyl peptidase IV [2] = target: T1, Dipeptidyl peptidase IV (Porphyromonas gingivalis, UniProt O31048); test: Inhibition of Porphyromonas gingivalis N-terminal His-tagged DPP4 expressed in Escherichia coli using Gly-Pro-p-nitroanilide as substrate
[3] = target: Dipeptidyl peptidase IV (Porphyromonas gingivalis) (UniProt O31048); test: Inhibition of Porphyromonas gingivalis N-terminal His-tagged DPP4 expressed in Escherichia coli using Gly-Pro-p-nitroanilide as substrate after 1 hr
Dipeptidyl peptidase IV [4] = target: T1, Dipeptidyl peptidase IV; test: Inhibition of Porphyromonas gingivalis N-terminal His-tagged DPP4 expressed in Escherichia coli using Gly-Pro-p-nitroanilide as substrate preincubated for 15 mins
[5] = target: Dipeptidyl peptidase IV (Porphyromonas gingivalis) (UniProt O31048); test: Inhibition of Porphyromonas gingivalis N-terminal His-tagged DPP4 expressed in Escherichia coli at 100 uM using Gly-Pro-p-nitroanilide as substrate relative to control
[6] = Selectivity index, ratio of IC50 for human DPP4 to IC50 for Porphyromonas gingivalis N-terminal His-tagged DPP4 expressed in Escherichia coli
Dipeptidyl peptidase 9 = Dipeptidyl peptidase 9 (Bos taurus, UniProt E1BI31); test: Inhibition of bovine DPP9
Chain of Dipeptidyl peptidase 9 (E1BI31 whole entry): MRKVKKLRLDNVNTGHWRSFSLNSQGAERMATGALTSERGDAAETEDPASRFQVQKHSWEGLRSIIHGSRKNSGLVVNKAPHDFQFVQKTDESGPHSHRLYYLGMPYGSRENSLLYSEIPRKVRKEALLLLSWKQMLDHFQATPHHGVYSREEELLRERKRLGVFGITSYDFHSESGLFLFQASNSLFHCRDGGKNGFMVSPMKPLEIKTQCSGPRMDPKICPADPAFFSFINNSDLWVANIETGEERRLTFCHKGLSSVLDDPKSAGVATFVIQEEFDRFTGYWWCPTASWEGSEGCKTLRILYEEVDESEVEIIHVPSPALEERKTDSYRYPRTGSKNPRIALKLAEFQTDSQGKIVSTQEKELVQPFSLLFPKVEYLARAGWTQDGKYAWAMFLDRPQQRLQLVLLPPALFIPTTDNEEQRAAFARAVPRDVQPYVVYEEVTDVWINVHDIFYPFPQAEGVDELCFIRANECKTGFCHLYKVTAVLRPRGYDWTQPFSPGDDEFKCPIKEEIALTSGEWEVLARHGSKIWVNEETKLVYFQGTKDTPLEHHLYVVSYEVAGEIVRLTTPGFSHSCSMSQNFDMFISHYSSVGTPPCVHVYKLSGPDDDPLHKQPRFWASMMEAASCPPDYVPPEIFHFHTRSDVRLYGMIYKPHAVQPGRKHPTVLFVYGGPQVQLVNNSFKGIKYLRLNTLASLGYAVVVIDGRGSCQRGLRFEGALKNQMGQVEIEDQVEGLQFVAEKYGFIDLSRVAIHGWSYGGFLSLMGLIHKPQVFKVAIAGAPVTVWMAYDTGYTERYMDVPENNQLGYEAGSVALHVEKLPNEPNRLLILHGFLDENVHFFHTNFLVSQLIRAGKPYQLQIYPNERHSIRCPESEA

T1 sequence (O31048 20-723 limits assumed): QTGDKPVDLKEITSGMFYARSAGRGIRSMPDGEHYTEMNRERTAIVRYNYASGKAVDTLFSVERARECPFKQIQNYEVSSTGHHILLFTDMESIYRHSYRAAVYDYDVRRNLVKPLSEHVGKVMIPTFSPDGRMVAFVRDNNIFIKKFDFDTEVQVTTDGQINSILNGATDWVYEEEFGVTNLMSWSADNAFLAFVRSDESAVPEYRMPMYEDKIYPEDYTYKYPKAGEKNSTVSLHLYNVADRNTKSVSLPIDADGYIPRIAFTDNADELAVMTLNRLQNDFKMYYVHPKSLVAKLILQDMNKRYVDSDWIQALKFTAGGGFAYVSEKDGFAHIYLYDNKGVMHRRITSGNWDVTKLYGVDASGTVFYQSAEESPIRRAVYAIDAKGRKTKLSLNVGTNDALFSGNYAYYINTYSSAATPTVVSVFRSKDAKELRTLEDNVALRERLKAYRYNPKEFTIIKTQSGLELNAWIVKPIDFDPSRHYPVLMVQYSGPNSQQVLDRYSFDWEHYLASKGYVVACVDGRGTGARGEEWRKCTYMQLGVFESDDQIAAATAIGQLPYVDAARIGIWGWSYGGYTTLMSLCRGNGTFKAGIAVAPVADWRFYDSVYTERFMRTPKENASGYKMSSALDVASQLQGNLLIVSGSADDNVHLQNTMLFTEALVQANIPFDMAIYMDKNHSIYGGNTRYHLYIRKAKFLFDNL
Chain of Dipeptidyl peptidase IV (Porphyromonas gingivalis) (O31048 20-723 limits assumed): as above

N#C[C@@H]1CCCN1C(=O)CNC12CC3CC(CC(O)(C3)C1)C2 [VILDAGLIPTIN]
inhibition [1]: > 50%
IC50 (Dipeptidyl peptidase IV [2]; read-out: IC50): 1300 nM
inhibition [3]: Active
Ki (Dipeptidyl peptidase IV [4]): 17 nM

CC[C@@H](C)[C@H](N)C(=O)N1C[C@@H](N=[N+]=[N-])C[C@H]1C#N
inhibition [1]: > 50%
inhibition [5]: < 50%
IC50 (Dipeptidyl peptidase IV [2]; read-out: IC50): 230 nM
Ratio IC50 [6]: 1.26 to 1.3
inhibition [3]: Active

N#C[C@@H]1C[C@H](N=[N+]=[N-])CN1C(=O)[C@@H](N)CCCCNCc1ccc2ccccc2c1
inhibition [1]: > 50%
inhibition [5]: < 50%
IC50 (Dipeptidyl peptidase IV [2]; read-out: IC50): 79 nM
Ratio IC50 [6]: 7.04 to 7.1
inhibition [3]: Active

N#C[C@@H]1C[C@H](N=[N+]=[N-])CN1C(=O)[C@@H](N)CCCCNC(=O)OCc1ccccc1
inhibition [1]: > 50%
inhibition [5]: < 50%
IC50 (Dipeptidyl peptidase IV [2]; read-out: IC50): 300 nM
Ratio IC50 [6]: 1.76 to 1.8
inhibition [3]: Active

CC[C@H](C)[C@H](N)C(=O)N1C[C@@H](N=[N+]=[N-])C[C@H]1C#N
inhibition [1]: > 50%
inhibition [5]: < 50%
IC50 (Dipeptidyl peptidase IV [2]; read-out: IC50): 310 nM
Ratio IC50 [6]: 1.1

N#C[C@@H]1CCCN1C(=O)[C@@H](N)CCCCN
inhibition [1]: > 50%
inhibition [5]: < 50%
IC50 (Dipeptidyl peptidase IV [2]; read-out: IC50): 1600 nM
Ratio IC50 [6]: 0.16 to 0.2

CC1CC(N=[N+]=[N-])CN1C(=O)C(N)CCC(=O)N1CCN(Cc2ccc(F)cc2)CC1 (configuration not stated)
inhibition [1]: > 50%
inhibition [5]: < 50%
IC50 (Dipeptidyl peptidase IV [2]; read-out: IC50): 2400 nM
Ratio IC50 [6]: 0.425

N[C@@H](CCNCc1ccc(Cl)cc1)C(=O)N1CCCCC1
inhibition [1]: > 50%
IC50 (Dipeptidyl peptidase IV [2]; read-out: IC50): > 100000 nM
IC50 (Dipeptidyl peptidase 9): 76600 nM

CC#CCn1c(N2CCC[C@@H](N)C2)nc2c1c(=O)n(Cc1nc(C)c3ccccc3n1)c(=O)n2C [LINAGLIPTIN]
inhibition [1]: > 50%
inhibition [5]: < 50%
IC50 (Dipeptidyl peptidase IV [2]): IC50 10-100 uM
IC50 (Dipeptidyl peptidase 9): > 100000 nM

NC(CCCCNC(=O)OCc1ccccc1)C(=O)N1CCSC1 (configuration not stated)
inhibition [1]: > 50%
inhibition [5]: < 50%
IC50 (Dipeptidyl peptidase IV [2]; read-out: IC50): 22000 nM
Ratio IC50 [6]: 0.17
